Patent US3997662A, “Antibiotics and their preparation” (Rhone-Poulenc S.A., priority 1962, dated 1976)
Structures can show the parent of a compound that is named as a salt. Where two headings read alike, the source gives them in different places.

Assays:
Solubility = assay type: physicochemical
[1] = system: transplantable tumours in the mouse; test: Anti-cancer activity (general statement)
Klebsiella pneumoniae = test: Activity by turbidimetric estimation against a 9865 RP control; assay type: cell-based; conditions: purified product; units per mg, Klebsiella pneumoniae growth inhibition
Excerpt: The following non-limitative Examples illustrate the invention. […] This activity is expressed in units (u) per mg. for solid products and in units per cc. for solutions. (The unit is defined as the smallest quantity of product which, dissolved in 1 cc. of an appropriate medium, inhibits the growth of Klebsiella pneumoniae under the conditions in question.)

numerous bacteria = test: Bacteriostatic activity (general statement); assay type: cell-based; conditions: including antibiotic-resistant bacteria
Excerpt: For each organism, the lowest concentration of substance has been determined which, under the defined conditions, prevents all visible development in an appropriate nutritive broth. The results of various determinations are shown in Table VI, wherein the minimal bacteriostatic concentrations are expressed as micrograms of substance per cubic centimeter of experimental medium.

| Structure (SMILES) | solubility in chloroform (Solubility; chloroform) | solubility in water (Solubility) | solubility in benzene (Solubility; benzene) | solubility in diethyl ether (Solubility; diethyl ether) | solubility in ketones (Solubility; ketones) | anti-cancer activity [1] | anti-cancer activity ([1]; listed as 13057 R.P.) | activity (Klebsiella pneumoniae) | bacteriostatic activity (numerous bacteria) |
| --- | --- | --- | --- | --- | --- | --- | --- | --- | --- |
| COc1cccc2c1C(=O)c1c(O)c3c(c(O)c1C2=O)C[C@@](O)(C(C)=O)C[C@@H]3O[C@H]1C[C@H](N)[C@H](O)[C@H](C)O1 [13057 RP hydrochloride] | slightly soluble | soluble | – | – | – | – | – | – | – |
| COc1cccc2c1C(=O)c1c(O)c3c(c(O)c1C2=O)C[C@@](O)(C(C)=O)C[C@@H]3O[C@H]1C[C@H](N)[C@H](O)[C@H](C)O1 [13057 RP] | – | very slightly soluble | particularly insoluble | particularly insoluble | very slightly soluble | most interesting of the new antibiotics | very pronounced | 160 μ/mg. | exerted against numerous bacteria |
